Where two headings read alike, the source gives them in different places.
Key:
[1] = tested on: unresectable metastatic GIST; conditions: for total tumour size (tumour area of 8 large measurable liver metastases, MRI): 112.5 cm^2 before treatment
Method: Seven cycles of IADIC (ifosfamide, doxoribicin, and dacarbazine) were given from November 1998 to March 1999 for multiple liver metastases. […] They were subsequently treated between April 1999 and February 2000 with an experimental regimen consisting of thalidomide 400 mg once daily and interferon alpha 0.9 MU T.I.D. s.c. to control persisting liver disease.
(§1) Treatment toxicity was assessed at follow-up visits performed at 2 to 4 week intervals, and blood cell counts and blood chemistry were analysed at 1 to 2 week intervals. Treatment response was assessed with dynamic MRI scans, ^18F-fluorodeoxyglucose (FDG) positron emission tomography (PET) examinations, and cutting needle biopsies from a liver metastasis. Dynamic MRI was performed with a 1.5T Magnetom Vision (Siemens, Erlangen, Germany). Fat-suppressed T1-weighted breathhold gradient echo transaxial images were obtained both before and after intravenous contrast medium injection (0.1 mmol/kg gadolinium-DOTA; Dotarem, Guerbet, France). The enhancement pattern was established using sequential imaging over 5 minutes, and delayed scanning was performed after 10 minutes. FDG PET was done using an 8-ring ECAT 931/08 device (Siemens-CTI Corp. Knoxville, Tenn.). The FDG dose given varied between 355 to 375 MBq.

[2] = during therapy
Method: as §1, with “minutes.” for “minutes. FDG PET was done using an 8-ring ECAT 931/08 device (Siemens-CTI Corp. Knoxville, Tenn.). The FDG dose given varied between 355 to 375 MBq.”

GIST = tested on: GIST
Excerpt: At the priority date of the present patent application a clinical study with more GIST patients was being conducted analogously to the study described in Example 1.

[3] = tested on: unresectable and/or metastatic malignant gastrointestinal stromal tumors (GIST)
Method: A phase 2, open-label, randomized multinational study was conducted in patients with unresectable and/or metastatic malignant gastrointestinal stromal tumors (GIST). […] The primary evidence of efficacy was based on objective response rates, and the time to response, duration of response, time to treatment failure and survival were also evaluated. Tumors were required to be measurable in at least one site of disease, and response characterization based on Southwestern Oncology Group (SWOG) criteria.

[4] = among the 61 patients with stable disease

CS(=O)(=O)O.Cc1ccc(NC(=O)c2ccc(CN3CCN(C)CC3)cc2)cc1Nc1nccc(-c2cccnc2)n1 [SALT I]
metabolic response in tumour (PET imaging) ([1]; 400 mg daily orally, within 1 month): complete metabolic response | decrease of total tumour size (MRI) ([1]; 1 month): 52% | total tumour size (tumour area of 8 large measurable liver metastases, MRI) ([1]; 1 month): 54.3 cm^2 | decrease of total tumour size (MRI) ([1]; 2 months): 63% | total tumour size (tumour area of 8 large measurable liver metastases, MRI) ([1]; 2 months): 41.5 cm^2 | decrease of total tumour size (MRI) ([1]; 2 weeks after starting): 41% | total tumour size (tumour area of 8 large measurable liver metastases, MRI) ([1]; 2 weeks after starting): 66.9 cm^2 | decrease of total tumour size (MRI) ([1]; 4 months): 68% | total tumour size (tumour area of 8 large measurable liver metastases, MRI) ([1]; 4 months): 36.2 cm^2 | decrease of total tumour size (MRI) ([1]; 5.5 months): 71% | total tumour size (tumour area of 8 large measurable liver metastases, MRI) ([1]; 5.5 months): 32.5 cm^2 | FDG uptake in PET ([1]; PET 1 month after starting): no abnormal FDG uptake was present in the liver | FDG uptake in PET at the sites of liver metastases ([1]; PET 2 months after starting): less FGD uptake than the surrounding liver parenchyma | World Health Organization (WHO) performance status ([1]; during therapy, improved from 1 before): 0 | new lesions ([1]; follow-up MRI on treatment): No new lesions appeared | liver metastases that disappeared ([1]; of the 28 liver metastases, follow-up MRI on treatment): 6 | pattern of contrast enhancement of tumour by dynamic MRI ([1]; within 2 weeks after starting): decreased dramatically | drug-related liver, renal or cardiac toxicity [2]: No drug-related liver, renal or cardiac toxicity was observed | reduction in patients with partial response (GIST; 8 patients): 50-66% | reduction in patients with stable disease (GIST; 18 patients): 4-42% | patients with partial response (GIST; of 27 evaluated patients): 8 patients | patients with stable disease (GIST; of 27 evaluated patients): 18 patients | patients with progression of the disease (GIST; of 27 evaluated patients, study not finished): 1 patient | Best response: Complete response ([3]; 400 mg (N = 73)): 0 n (%) | Best response: Not evaluable ([3]; 400 mg (N = 73)): 3 (4.1) n (%) | Best response: Partial response ([3]; 400 mg (N = 73)): 27 (37.0) n (%) | Best response: Progressive disease ([3]; 400 mg (N = 73)): 10 (13.7) n (%) | Best response: Stable disease ([3]; 400 mg (N = 73)): 33 (45.2) n (%) | Best response: Unknown ([3]; 400 mg (N = 73)): 0 n (%) | differences between dose groups in efficacy parameters ([3]; 400 mg vs 600 mg): could not be observed | Best response: Complete response ([3]; 600 mg (N = 74)): 0 n (%) | Best response: Not evaluable ([3]; 600 mg (N = 74)): 4 (5.4) n (%) | Best response: Partial response ([3]; 600 mg (N = 74)): 32 (43.2) n (%) | Best response: Progressive disease ([3]; 600 mg (N = 74)): 8 (10.8) n (%) | Best response: Stable disease ([3]; 600 mg (N = 74)): 28 (37.8) n (%) | Best response: Unknown ([3]; 600 mg (N = 74)): 2 (2.7) n (%) | Best response: Complete response ([3]; All doses (N = 147)): 0 n (%) | Best response: Not evaluable ([3]; All doses (N = 147)): 7 (4.8) n (%) | Best response: Partial response ([3]; All doses (N = 147)): 59 (40.1) n (%) | Best response: Stable disease ([3]; All doses (N = 147)): 61 (41.5) n (%) | Best response: Unknown ([3]; All doses (N = 147)): 2 (1.4) n (%) | patients with reduction in tumor size by more than 25% on at least one assessment ([3]; all 147 patients): 118 patients | share of patients with reduction in tumor size by more than 25% on at least one assessment ([3]; all 147 patients): 80% | patients with partial response not yet confirmed by a second assessment [3, 4]: 28 patients | patients with reduction in tumor size by more than 25% [3, 4]: 19 patients | patients with significant tumor shrinkage among stable disease [3, 4]: 47 patients | estimate of patients free from treatment failure ([3]; at 12 weeks, interval censoring): 80% | estimate of patients free from treatment failure ([3]; at 12 weeks, without interval-censoring): 81% | estimate of patients free from treatment failure ([3]; at 24 weeks, interval censoring): 66% | estimate of patients free from treatment failure ([3]; at 24 weeks, without interval-censoring): 67% | median time to the onset of response ([3]; entire study population): 12 weeks | relapse among patients with confirmed response ([3]; interim analysis): No patients with confirmed response had relapsed | median duration of response ([3]; interim analysis, no interval censoring): approximately 14 weeks | median time to treatment failure ([3]; interval censoring, pooled population, based on only two patients, not reliable): 54 weeks

Source: patent US6958335B2, “Treatment of gastrointestinal stromal tumors” (Novartis AG, priority 2000, dated 2005)
